Measurements: the NIST ThermoML archive (doi:10.1021/je9005618)
Numbers after ± are expanded uncertainties.

Experiments:
[1] = refractive index (Na D-line) (dimensionless); conditions: 101.33 kPa, Liquid, Standard Abbe refractometry
[2] = 101.33 kPa, Liquid; for speed of sound: Pulse-echo method; for mass density: Vibrating tube method

speed of sound ([2]; 278.15 K) [m/s] | mass density ([2]; 278.15 K) [kg/m3] | speed of sound ([2]; 288.15 K) [m/s] | mass density ([2]; 288.15 K) [kg/m3] | speed of sound ([2]; 298.15 K) [m/s] | mass density ([2]; 298.15 K) [kg/m3] | speed of sound ([2]; 308.15 K) [m/s] | mass density ([2]; 308.15 K) [kg/m3] | speed of sound ([2]; 318.15 K) [m/s] | mass density ([2]; 318.15 K) [kg/m3] | speed of sound ([2]; 328.15 K) [m/s] | mass density ([2]; 328.15 K) [kg/m3] | Structure (SMILES) | refractive index ([1]; 288.15 K) | refractive index ([1]; 298.15 K) | refractive index ([1]; 308.15 K) | refractive index ([1]; 318.15 K) | refractive index ([1]; 328.15 K)
 |  |  |  |  |  |  |  |  |  |  |  | CCn1cc[n+](C)c1.O=S(=O)([O-])C(F)(F)F [1-ethyl-3-methylimidazolium trifluoromethanesulfonate] | 1.43599 ± 0.00051 | 1.4332 ± 0.00051 | 1.4304 ± 0.00051 | 1.42767 ± 0.00051 | 1.42494 ± 0.00051
1243.5 ± 0.81 | 953.04 ± 0.09 | 1196.8 ± 0.8 | 940.12 ± 0.1 | 1150.7 ± 0.78 | 927.01 ± 0.1 | 1104.7 ± 0.77 | 913.68 ± 0.11 | 1059.2 ± 0.75 | 900.13 ± 0.11 |  |  | COC(C)=O [methyl ethanoate] | 1.36414 ± 0.00033 | 1.35881 ± 0.00033 | 1.35367 ± 0.00033 | 1.34823 ± 0.00033 | 
1231 ± 1.2 | 918.5 ± 0.23 | 1185.2 ± 1.2 | 906.48 ± 0.23 | 1140 ± 1.2 | 894.33 ± 0.23 | 1095.3 ± 1.2 | 882.02 ± 0.23 | 1051 ± 1.1 | 869.52 ± 0.23 | 1007.4 ± 1.1 | 856.85 ± 0.23 | CCOC(C)=O [ethyl acetate] | 1.37519 ± 0.00037 | 1.36994 ± 0.00037 | 1.3646 ± 0.00037 | 1.35919 ± 0.00037 | 1.35368 ± 0.00037

Structure (SMILES) | speed of sound ([2]; 278.15 K) [m/s] | mass density ([2]; 278.15 K) [kg/m3] | speed of sound ([2]; 288.15 K) [m/s] | mass density ([2]; 288.15 K) [kg/m3] | speed of sound ([2]; 298.15 K) [m/s] | mass density ([2]; 298.15 K) [kg/m3] | speed of sound ([2]; 308.15 K) [m/s] | mass density ([2]; 308.15 K) [kg/m3] | speed of sound ([2]; 318.15 K) [m/s] | mass density ([2]; 318.15 K) [kg/m3] | speed of sound ([2]; 328.15 K) [m/s] | mass density ([2]; 328.15 K) [kg/m3] | refractive index ([1]; 288.15 K) | refractive index ([1]; 298.15 K) | refractive index ([1]; 308.15 K) | refractive index ([1]; 318.15 K) | refractive index ([1]; 328.15 K)
CC(C)=O [acetone] | 1256.5 ± 1.2 | 807.41 ± 0.24 | 1210.7 ± 1.2 | 796.14 ± 0.24 | 1165 ± 1.2 | 784.76 ± 0.24 | 1118.5 ± 1.2 | 773.21 ± 0.24 | 1073.7 ± 1.1 | 761.47 ± 0.24 |  |  | 1.36146 ± 0.001 | 1.35597 ± 0.001 | 1.35054 ± 0.001 | 1.34491 ± 0.001 | 
